Data taken from US20140357512A1, “HISTONE DEACETYLASE (HDAC) BIOMARKERS IN MULTIPLE MYELOMA” (priority 2013, published 2014).

System: human myeloma cell line MM.1S
Assay: SILAC acetylated-lysine peptide profiling, HDAC inhibitor vs DMSO (light/heavy ratio)
Assay type: cell-based
Text: An embodiment of the invention comprises utilizing the SILAC method in order to quantitate changes in protein expression between two or more populations of cells. The SILAC method is a technique based on mass spectrometry that detects differences in protein abundance among samples using non-radioactive isotopic labeling. The SILAC method is known in the art, and described in detail in Ong et al., “Stable Isotope Labeling by Amino Acids in Cell Culture, SILAC, as a Simple and Accurate Approach to Expression Proteomics”, Molecular & Cellular Proteomics, vol. 1, pp. 376-386 (2002), which is incorporated herein by reference in its entirety.
Briefly, the SILAC method involves growing two populations of cells in cell culture. The first population of cells is grown in growth media containing normal amino acids (“normal media”). The second population of cells is grown in media lacking a standard essential amino acid (such as lysine), but is then supplemented with a non-radioactive, isotopically labeled form of that essential amino acid (such as lysine labeled with ^13C atoms, rather than normal ^12C atoms), which is called “heavy media”. When the two populations of cells are each growing in the medium, they incorporate the amino acids into all of their proteins. The growth of cells maintained in the heavy media is no different from that in normal media. All peptides containing the heavy amino acids are heavier than their normal counterparts. The cells from each of the two populations of cells are lysed. The lysates from each of the two cell populations are then combined. The combined cell lysates are then analyzed by mass spectrometry. Pairs of chemically identical peptides of different stable isotope composition can be differentiated in a mass spectrometer due to their difference in mass. The ratio of peak intensities in the mass spectrum for such peptide pairs reflects the abundance ratio for the two proteins.
This example describes SILAC studies that were performed to compare the effects of three different HDAC inhibitors (Compound A, Compound B, and tubastatin A) to a control on a human multiple myeloma cell line. The HDAC inhibitors were also compared amongst themselves to determine differences in their effects.
A human myeloma cell line MM.1S was grown using either ^12C (light) or ^13C (heavy) lysine containing culture medium. The “heavy” cells were treated with DMSO as the control, and the “light” cells were treated with a single HDAC inhibitor at 37° C. for 6 hours. The heavy and light cells were lysed, and the lysates were mixed in 1:1 ratio and digested with the protease trypsin. The acetylated lysine containing peptides (due to the action of the HDAC inhibitor) in the digested peptide pool were captured by a non-specific anti-acetylated lysine antibody cocktail (the antibodies identify both light and heavy acetylated peptides), and subjected to mass spectrometry analysis in order to identify thousands of individual peptides.
Thousands of peptides were identified in pairs (^12C and ^13C) due to their known mass differences. The amino acid sequence and quantitative ratio (Light/Heavy) of a given peptide in two differentially treated cell lysates were then determined and annotated with their possible protein (gene) sources.
As stated above, three HDAC inhibitors (Compound A, Compound B, and Tubastatin A) were used. Thus, the SILAC method was performed three times, with a different HDAC inhibitor compared to a control each time. Accordingly, there are three pairs of quantitative data in the table below, i.e., Compound A:DMSO, Compound B:DMSO, and Tubastatin A:DMSO. A cut-off of 1.30 fold of change (increase or decrease) was then used to determine “changed” or “+” in the table, and any peptides with a fold of change less than 1.3 fold were determined to be “unchanged” or “0” in the table. Those peptides that were not identified were marked as “NA” in the table. […]

SMILES: CN1CCc2c(c3ccccc3n2Cc2ccc(C(=O)NO)cc2)C1 [Tub A]
- light to heavy ratio (L/H ratio) of acetylated peptide, log 2 scale (NIDPK(ac)PCTPR (SEQ ID NO: 148), Isoform 1 of DAZ-associated protein 1 [83], DAZAP1): 0.80
- L/H ratio of acetylated peptide (NK(ac)WFFQK (SEQ ID NO: 498), 60S ribosomal protein L27 [128], RPL27): 0.00 log 2
- light to heavy ratio (L/H ratio) of acetylated peptide, log 2 scale (NKEEAAEYAK(ac)LLAK (SEQ ID NO: 214), 40S ribosomal protein S6 [211], RPS6): 0.53
- light to heavy ratio (L/H ratio) of acetylated peptide, log 2 scale (NLDK(ac)EYLPIGGLAEFCK (SEQ ID NO: 159), Aspartate aminotransferase mitochondrial [94], GOT2): −0.46
- L/H ratio of acetylated peptide ADKDYHFK(ac)VDNDENEHQLSLR (SEQ ID NO: 61) (NPM1 [32], log 2 scale, drug vs DMSO): −0.64
- L/H ratio of acetylated peptide FINYVK(ac)NCFR (SEQ ID NO: 62) (NPM1 [244], log 2 scale, drug vs DMSO): −0.52
- light to heavy ratio (L/H ratio) of acetylated peptide, log 2 scale (NTILK(ac)AYDGR (SEQ ID NO: 177), Isocitrate dehydrogenase [NADP] mitochondrial [256], IDH2): −0.49
- L/H ratio of acetylated peptide GVTQFGNK(ac)YIQQTKPLTLER (SEQ ID NO: 18) (NUDT21 [23], log 2 scale, drug vs DMSO): 0.50
- light to heavy ratio (L/H ratio) of acetylated peptide, log 2 scale (NVESYTK(ac)LGNPTR (SEQ ID NO: 210), Dolichyl-diphosphooligosaccharide--protein glycosyltransferase subunit 1 precursor [226], RPN1): −0.88
- light to heavy ratio (L/H ratio) of acetylated peptide, log 2 scale (NVTLPAVFK(ac)APIRPDIVNFVHTNLR (SEQ ID NO: 205), 60S ribosomal protein L4 [29], RPL4): −0.48
- L/H ratio of acetylated peptide (NVYK(ac)FELDTSER (SEQ ID NO: 444), Dolichyl-diphosphooligosaccharide--protein glycosyltransferase subunit 2 [460], RPN2): 0.00 log 2
- light to heavy ratio (L/H ratio) of acetylated peptide, log 2 scale (NYEHLFK(ac)VNDK (SEQ ID NO: 192), Mitochondrial import inner membrane translocase subunit TIM16 [82], PAM16): 1.00
- light to heavy ratio (L/H ratio) of acetylated peptide FCLSK(ac)PGVYK (SEQ ID NO: 345) (Nodal modulator 1 [630], NOMO3, NOMO1, drug:DMSO): 0.00 log 2
- L/H ratio of acetylated peptide SGVGNVFIK(ac)NLDK (SEQ ID NO: 63) (PABPC4 [104], log 2 scale, drug vs DMSO): −0.54
- L/H ratio of acetylated peptide YGVSGYPTLK(ac)IFR (SEQ ID NO: 66) (PDIA3 [104], log 2 scale, drug vs DMSO): −0.60
- L/H ratio of acetylated peptide PSHLTNK(ac)FEDK (SEQ ID NO: 65) (PDIA3 [214], log 2 scale, drug vs DMSO): −0.63
- L/H ratio of acetylated peptide GEK(ac)FVMQEEFSR (SEQ ID NO: 64) (PDIA3 [335], log 2 scale, drug vs DMSO): −0.58
- light to heavy ratio (L/H ratio) of acetylated peptide, log 2 scale (PGGPALWGDAFK(ac)R (SEQ ID NO: 189), Protein NipSnap homolog 3A [166], NIPSNAP3A): 0.77
- L/H ratio of acetylated peptide SLLGK(ac)DVLFLK (SEQ ID NO: 67) (PGK1 [91], log 2 scale, drug vs DMSO): 0.38
- L/H ratio of acetylated peptide SIYGEK(ac)FEDENFILK (SEQ ID NO: 68) (PPIA [82], log 2 scale, drug vs DMSO): −0.67
- L/H ratio of acetylated peptide VIFGLFGK(ac)TVPK (SEQ ID NO: 70) (PPIB [67], log 2 scale, drug vs DMSO): −0.44
- L/H ratio of acetylated peptide TVPK(ac)TVDNFVALATGEK (SEQ ID NO: 69) (PPIB [71], log 2 scale, drug vs DMSO): −0.49
- L/H ratio of acetylated peptide VIK(ac)[…] (SEQ ID NO: 71) (PPIB [98], log 2 scale, drug vs DMSO): −0.40
- L/H ratio of acetylated peptide IYGFYDECK(ac)R (SEQ ID NO: 72) (PPP1CC [141], log 2 scale, drug vs DMSO): −0.43
- light to heavy ratio (L/H ratio) of acetylated peptide TAWLDGK(ac)HVVFGK (SEQ ID NO: 592) (Peptidyl-prolyl cis-trans isomerase B [165], gene PPIB, inhibitor:DMSO): 0.00 log 2
- light to heavy ratio (L/H ratio) of acetylated peptide FPDENFK(ac)LK (SEQ ID NO: 347) (Peptidyl-prolyl cis-trans isomerase C [123], PPIC, drug:DMSO): 0.00 log 2
- light to heavy ratio (L/H ratio) of acetylated peptide (ac)AAK(ac)VFESIGK (SEQ ID NO: 277) (Prohibitin [4], PHB, drug:DMSO): 0.39 log 2
- light to heavy ratio (L/H ratio) of acetylated peptide FVVEK(ac)AEQQK (SEQ ID NO: 263) (Prohibitin [202], PHB, drug:DMSO): 0.62 log 2
- light to heavy ratio (L/H ratio) of acetylated peptide GYPTIK(ac)FFR (SEQ ID NO: 541) (Protein disulfide-isomerase [103], gene P4HB, inhibitor:DMSO): 0.00 log 2
- light to heavy ratio (L/H ratio) of acetylated peptide THILLFLPK(ac)SVSDYDGK (SEQ ID NO: 297) (Protein disulfide-isomerase [263], P4HB, drug:DMSO): −0.45 log 2
- light to heavy ratio (L/H ratio) of acetylated peptide SGLLDK(ac)WK (SEQ ID NO: 602) (Signal peptidase complex subunit 2 [38], gene LOC653566, SPCS2, inhibitor:DMSO): 0.00 log 2
- light to heavy ratio (L/H ratio) of acetylated peptide (ac)AEYLASIFGTEK(ac)DK (SEQ ID NO: 283) (Splicing factor U2AF 35 kDa subunit [13], U2AF1, drug:DMSO): 0.60 log 2
- light to heavy ratio (L/H ratio) of acetylated peptide YDDPEVQK(ac)DIK (SEQ ID NO: 578) (Stress-70 protein mitochondrial [135], gene HSPA9, inhibitor:DMSO): 0.00 log 2
- light to heavy ratio (L/H ratio) of acetylated peptide, log 2 scale (TAMK(ac)YNLGLDLR (SEQ ID NO: 158), Glutamate dehydrogenase 1 mitochondrial [527], GLUD1): 0.48
- light to heavy ratio (L/H ratio) of acetylated peptide, log 2 scale (TLNDELEIIEGMK(ac)FDR (SEQ ID NO: 175), 60 kDa heat shock protein mitochondrial [218], HSPD1): −0.45
- light to heavy ratio (L/H ratio) of acetylated peptide, log 2 scale (TPELNLDQFHDK(ac)TPYTIMFGPDK (SEQ ID NO: 139), cDNA FLJ55574 highly similar to Calnexin [217], CANX): −0.48
- light to heavy ratio (L/H ratio) of acetylated peptide, log 2 scale (TPVIVTLK(ac)ENER (SEQ ID NO: 176), Hypoxia up-regulated protein 1 [75], HYOU1): −0.54
- L/H ratio of acetylated peptide INVYYNEATGGK(ac)YVPR (SEQ ID NO: 109) (TUBB2C [58], log 2 scale, drug vs DMSO): −0.43
- L/H ratio of acetylated peptide ILAEGGGAK(ac)FK (SEQ ID NO: 110) (TUFM [91], log 2 scale, drug vs DMSO): −0.61
- L/H ratio of acetylated peptide QIESK(ac)TAFQEALDAAGDK (SEQ ID NO: 111) (TXN [8], log 2 scale, drug vs DMSO): −0.70
- L/H ratio of acetylated peptide VYVAK(ac)VDCTAHSDVCSAQGVR (SEQ ID NO: 113) (TXNDC5, MUTED, MUTED-TXNDC5 [118], log 2 scale, drug vs DMSO): −0.49
- L/H ratio of acetylated peptide LFKPGQEAVK(ac)YQGPR (SEQ ID NO: 112) (TXNDC5, MUTED, MUTED-TXNDC5 [150], log 2 scale, drug vs DMSO): −0.47
- light to heavy ratio (L/H ratio) of acetylated peptide, log 2 scale (TYGEIFEK(ac)FHPIR (SEQ ID NO: 188), NADH dehydrogenase [ubiquinone] 1 subunit C2 [114], NDUFC2): 1.00
- light to heavy ratio (L/H ratio) of acetylated peptide NICSK(ac)YSVR (SEQ ID NO: 256) (Thioredoxin domain-containing protein 5 [390], TXNDC5, MUTED, MUTED-TXNDC5, drug:DMSO): −0.51 log 2
